Data reported in US12577231B2, “Androgen receptor PROTACS” (GlaxoSmithKline Intellectual Property Development Limited, priority 2023, dated 2026).
Numbering of substitutions follows the chain as printed. One block for each compound: values may come before it.

Assays:
[1] = target: T1, Androgen Receptor, MDA-PCa-2b (AR T878A/L702H) (Homo sapiens, UniProt P10275, L702H/T878A); test: Androgen Receptor Degradation-Imaging Assay, MDA-PCa-2b cell line; format: cell-based; conditions: 16 hours treatment, maximum observed degradation
T1 construct: host or cells: MDA-PCa-2b
T1 sequence (P10275 1-920 L702H/T878A): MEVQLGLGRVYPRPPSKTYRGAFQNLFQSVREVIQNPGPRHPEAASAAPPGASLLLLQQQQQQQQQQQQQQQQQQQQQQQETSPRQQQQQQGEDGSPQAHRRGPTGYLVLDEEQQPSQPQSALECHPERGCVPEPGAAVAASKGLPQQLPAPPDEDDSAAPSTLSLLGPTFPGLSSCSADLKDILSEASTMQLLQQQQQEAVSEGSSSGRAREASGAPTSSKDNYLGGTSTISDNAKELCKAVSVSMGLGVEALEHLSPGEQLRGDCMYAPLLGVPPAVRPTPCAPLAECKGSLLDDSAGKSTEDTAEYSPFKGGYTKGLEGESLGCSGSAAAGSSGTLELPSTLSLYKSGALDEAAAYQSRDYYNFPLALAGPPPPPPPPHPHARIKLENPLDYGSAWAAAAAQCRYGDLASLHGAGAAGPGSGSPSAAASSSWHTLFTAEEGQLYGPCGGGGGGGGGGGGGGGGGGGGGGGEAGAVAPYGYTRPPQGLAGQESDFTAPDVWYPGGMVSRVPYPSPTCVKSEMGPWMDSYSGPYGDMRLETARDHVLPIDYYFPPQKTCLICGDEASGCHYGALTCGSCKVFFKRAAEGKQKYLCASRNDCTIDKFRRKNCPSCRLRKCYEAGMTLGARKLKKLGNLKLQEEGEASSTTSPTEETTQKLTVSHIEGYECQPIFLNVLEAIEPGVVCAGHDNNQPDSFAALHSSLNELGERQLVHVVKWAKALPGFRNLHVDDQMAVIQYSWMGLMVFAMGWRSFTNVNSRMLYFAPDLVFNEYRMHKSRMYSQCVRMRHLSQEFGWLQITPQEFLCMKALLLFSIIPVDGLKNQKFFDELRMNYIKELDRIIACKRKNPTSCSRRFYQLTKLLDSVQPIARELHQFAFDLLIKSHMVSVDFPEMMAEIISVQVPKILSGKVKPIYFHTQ
Experimental: (§1) Degradation of Androgen Receptor (AR) protein in human prostate cancer cell lines (MDA-PCa-2b (AR T878A/L702H), LNCaP (AR T878A), VCaP (AR wild type and amplified) 22RV1 (AR H875Y) and PC3 (AR negative control)) treated with AR PROTACs was quantified using immunofluorescence. Prostate cancer cells were plated (MDA-PCa-2b, and VCaP 16,000 cells/well; LNCaP and 22RV1 32,000 cells/well, and PC3 8,000 cells/well) in an optical bottom 96-well cell culture plate and allowed to attach overnight. The prostate cancer cell lines were treated for 16 hours with a 10-point 3-fold dilution series (dose range=0.02 nM to 333 nM). PC3 is included as an AR negative control and not treated with compound. Cells are fixed and permeabilized with 4% formaldehyde, blocked with 10% goat serum in immunofluorescence (IF) buffer (130 mM NaCl, 7 mM Na2HPO4, 3.5 mM NaH2PO4, 7.7 mM NaN3, 0.1% BSA, 0.2% Triton X, 0.05% Tween 20) prior to overnight incubation with rabbit antibody specific for C terminus of AR (commercially available from RevMaB Biosciences). Following washes with IF buffer, cells were incubated with fluorescent secondary antibody (Goat anti-rabbit Alexa 647; commercially available from Invitrogen) and Hoechst nuclear stain (commercially available from Themo Scientific) prior to quantification of nuclear AR levels via Opera Phenix high-content fluorescent imager using a 40× water objective. Image analysis was performed with Harmony software.
(§2) The averaged nuclear Alexa 647 median fluorescence intensity (MFI) of PC3 cells is subtracted from the nuclear Alexa 647 MFI of PROTAC treated and DMSO control treated cells. % AR remaining is calculated for PROTAC treatments as a percent of the DMSO control (MFI PROTAC treated/MFI DMSO control treated)*100). DC50 and the Dmax values, were obtained from these normalised values fitted with a 4-parameter sigmoidal response curve (Xlfit software). The DC50 is the interpolated concentration of PROTAC corresponding to 50% of the protein being degraded, and the Dmax parameter is the maximum experimentally observed degradation.

[2] = target: T2, Androgen Receptor, VCaP (AR wild type and amplified) (Homo sapiens, UniProt P10275); test: Androgen Receptor Degradation-Imaging Assay, VCaP cell line; format: cell-based; conditions: 16 hours treatment, maximum observed degradation
T2 construct: endogenous in cells; host or cells: VCaP
T2 sequence (P10275 1-920): T1 sequence (P10275 1-920 L702H/T878A) with H702L, A878T
Experimental: as §1, §2

SMILES: CC1(C)[C@H](NC(=O)c2ccc(N3CCC(CN4CCC(n5ccc6c(N7CCC(=O)NC7=O)cc(F)cc65)CC4)CC3)c(F)c2)C(C)(C)[C@H]1Oc1ccc(C#N)c2ncccc12 [Example 32, N-((1r,3r)-3-((8-Cyanoquinolin-5-yl)oxy)-2,2,4,4-tetramethylcyclobutyl)-4-(4-((4-(4-(2,4-dioxotetrahydropyrimidin-1(2H)-yl)-6-fluoro-1H-indol-1-yl)piperidin-1-yl)methyl)piperidin-1-yl)-3-fluorobenzamide]
Dmax [1]: ≥ 80% | Dmax [2]: ≥ 80%

SMILES: CC1(C)[C@H](NC(=O)c2cc(F)c(N3CCC(CN4CCC(n5ncc6c(N7CCC(=O)NC7=O)cccc65)CC4)CC3)c(F)c2)C(C)(C)[C@H]1Oc1ccc(C#N)c2ncccc12 [Example 30, N-((1r,3r)-3-((8-Cyanoquinolin-5-yl)oxy)-2,2,4,4-tetramethylcyclobutyl)-4-(4-((4-(4-(2,4-dioxotetrahydropyrimidin-1(2H)-yl)-1H-indazol-1-yl)piperidin-1-yl)methyl)piperidin-1-yl)-3,5-difluorobenzamide]
Dmax [1]: ≥ 80% | Dmax [2]: ≥ 80%

SMILES: CC1(C)[C@H](NC(=O)c2ccc(N3CCC(CN4CCC(n5ncc6c(N7CCC(=O)NC7=O)ccnc65)CC4)CC3)c(F)c2)C(C)(C)[C@H]1Oc1ccc(C#N)c2ncccc12 [Example 40, N-((1r,3r)-3-((8-Cyanoquinolin-5-yl)oxy)-2,2,4,4-tetramethylcyclobutyl)-4-(4-((4-(4-(2,4-dioxotetrahydropyrimidin-1(2H)-yl)-1H-pyrazolo[3,4-b]pyridin-1-yl)piperidin-1-yl)methyl)piperidin-1-yl)-3-fluorobenzamide]
Dmax [1]: ≥ 80% | Dmax [2]: ≥ 80%

SMILES: COc1cc(O[C@H]2C(C)(C)[C@H](NC(=O)c3ccc(N4CCC(CN5CCC(n6ncc7c(N8CCC(=O)NC8=O)nccc76)CC5)CC4)c(F)c3)C2(C)C)ccc1C#N [Example 20, N-((1r,3r)-3-(4-Cyano-3-methoxyphenoxy)-2,2,4,4-tetramethylcyclobutyl)-4-(4-((4-(4-(2,4-dioxotetrahydropyrimidin-1(2H)-yl)-1H-pyrazolo[4,3-c]pyridin-1-yl)piperidin-1-yl)methyl)piperidin-1-yl)-3-fluorobenzamide]
Dmax [1]: ≥ 80% | Dmax [2]: ≥ 80%

The next lines start with the values.

Dmax [1]: ≥ 80% | Dmax [2]: ≥ 80%
SMILES: CC1(C)[C@H](NC(=O)c2ccc(N3CCC(CN4CCC(n5ccc6c(N7CCC(=O)NC7=O)cccc65)CC4)CC3)cc2)C(C)(C)[C@H]1Oc1ccc(C#N)c2ncccc12 [Example 43, N-((1r,3r)-3-((8-Cyanoquinolin-5-yl)oxy)-2,2,4,4-tetramethylcyclobutyl)-4-(4-((4-(4-(2,4-dioxotetrahydropyrimidin-1(2H)-yl)-1H-indol-1-yl)piperidin-1-yl)methyl)piperidin-1-yl)benzamide]

Dmax [1]: ≥ 80% | Dmax [2]: ≥ 80%
SMILES: CC1(C)[C@H](NC(=O)c2ccc(N3CCC4(CC3)CC(N3CCC(n5ncc6c(N7CCC(=O)NC7=O)cccc65)CC3)C4)c(F)c2)C(C)(C)[C@H]1Oc1ccc(C#N)c2ncccc12 [Example 49, N-((1r,3r)-3-((8-Cyanoquinolin-5-yl)oxy)-2,2,4,4-tetramethylcyclobutyl)-4-(2-(4-(4-(2,4-dioxotetrahydropyrimidin-1(2H)-yl)-1H-indazol-1-yl)piperidin-1-yl)-7-azaspiro[3.5]nonan-7-yl)-3-fluorobenzamide]

Dmax [1]: ≥ 80% | Dmax [2]: ≥ 80%
SMILES: CC1(C)[C@H](NC(=O)c2ccc(N3CCC(CN4CCC(n5ccc6c(N7CCC(=O)NC7=O)c(F)ccc65)CC4)CC3)c(F)c2)C(C)(C)[C@H]1Oc1ccc(C#N)c2ncccc12 [Example 51, N-((1r,3r)-3-((8-Cyanoquinolin-5-yl)oxy)-2,2,4,4-tetramethylcyclobutyl)-4-(4-((4-(4-(2,4-dioxotetrahydropyrimidin-1(2H)-yl)-5-fluoro-1H-indol-1-yl)piperidin-1-yl)methyl)piperidin-1-yl)-3-fluorobenzamide]

Dmax [1]: ≥ 80% | Dmax [2]: ≥ 80%
SMILES: CC1(C)[C@H](NC(=O)c2ccc(N3CCC(CN4CCC(n5ncc6c(N7CCC(=O)NC7=O)c(F)ccc65)CC4)CC3)c(F)c2)C(C)(C)[C@H]1Oc1ccc(C#N)c2ncccc12 [Example 50, N-((1r,3r)-3-((8-Cyanoquinolin-5-yl)oxy)-2,2,4,4-tetramethylcyclobutyl)-4-(4-((4-(4-(2,4-dioxotetrahydropyrimidin-1(2H)-yl)-5-fluoro-1H-indazol-1-yl)piperidin-1-yl)methyl)piperidin-1-yl)-3-fluorobenzamide]
